Measured values as given in patent publication US8697747B2, “Enhancing coagulation or reducing fibrinolysis” (THe UAB Research Foundation, priority 2009, dated 2014).
Marks after values point to notes of the source that are not given here.

What was measured:
rabbit plasma = test: Thrombelastography in rabbit plasma with or without tPA; format: biochemical
Protocol: Two sets of two Sprague Dawley outbred male rats were anesthetized with ketamine and xylazine and had blood drawn via cardiac puncture, pooled in two batches, and anticoagulated 1:9 with 3.2% sodium citrate. Two male New Zealand White rabbits were sedated with acepromazine and had blood collected via central ear artery and similarly anticoagulated. Blood was centrifuged at 3000×g for 15 min, and the plasma stored in two batches until analyzed. The final volume for thrombelastographic plasma sample mixtures was 359.6 μL. Sample composition consisted of 316 μL of plasma; 10 μL of tissue factor reagent (0.1% final concentration in dH2O; Instrumentation Laboratory, Lexington, Mass.); 10 μL of dH2O or tissue-type plasminogen activator (tPA, 580 U/μg, Genentech, Inc., San Francisco, Calif.) for a final activity of 2000 U/mL for rat plasma or 300 IU/mL for rabbit plasma; 3.6 μL of dimethyl sulfoxide (DMSO) or DMSO with CORM-2 (100 μM final concentration; Sigma-Aldrich, St. Louis, Mo.); and 20 μL of 200 mM CaCl2. The tPA activity for each species was determined with pilot data to obtain reproducible lysis within 15 min. There was no appreciable lysis in rat plasma at 100, 300, or 1000 U/mL tPA. Plasma sample mixtures were placed in a disposable cup in a computer-controlled THROMBELASTOGRAPH® hemostasis system (Model 5000, Haemoscope Corp., Niles, Ill.), with addition of CaCl2 as the last step to initiate clotting. In experiments without tPA, data were collected until clot strength (maximum amplitude) was stable. In experiments with tPA, data derived from the second rabbit plasma samples were collected for 60 min whereas data obtained with the second rat plasma samples were collected for 15 min. Thrombelastographic variables were determined at 39° C. as previously described in Examples 1, 2, and 4. Data were statistically compared with unpaired Student's t-test.

[1] = test system: plasma from donors treated with warfarin; test: Thrombelastography/CLSM in plasma of warfarin-treated donors with or without tPA; format: biochemical, human; settings: warfarin-treated subjects, tPA 100 IU/mL; 100 μM CORM-2
Protocol: Pooled normal plasma (George King Bio-Medical, Overland Park, Kans.) anticoagulated with sodium citrate was utilized for experimentation. […] Plasma anticoagulated with sodium citrate procured from anonymous donors treated with warfarin was also obtained from the same vendor.
Plasma sample composition of experiments without tPA addition. The final volume for all subsequently described plasma sample mixtures was 359.6 μL. Sample composition consisted of 326 μL of plasma, 10 μL of tissue factor reagent (0.1% final concentration in dH2O; Instrumentation Laboratory, Lexington, Mass.), 3.6 μL of dimethyl sulfoxide (DMSO) or DMSO with CORM-2 (100 μM final concentration; Sigma-Aldrich, St. Louis, Mo.), and 20 μL of 200 mM CaCl2. Tissue factor stock was kept on ice prior to use and was remade every two hours. […] DMSO was added to dry CORM-2 just prior to placement into the plasma mixture. Six replicate experiments were performed with pooled normal plasma with or without CORM-2 added, whereas plasma obtained from subjects treated with warfarin underwent singlicate experiments with or without CORM-2 exposure.
Plasma sample composition of experiments with tPA addition. […]
Clot Lifespan Model Analyses. […] Time to maximum rate of lysis (TMRL): This is the time interval (sec) measured from the time of maximum strength to the time when the velocity of clot disintegration is maximal. […]

[2] = 300 U/ml tPA, 100 μM CORM-2, mean ± SD, n=4
[3] = 300 U/ml tPA, 100 μM vs 0 μM CORM-2
[4] = no tPA, 100 μM CORM-2, mean ± SD, n=7

## [C-]#[O+].[C-]#[O+].[C-]#[O+].[C-]#[O+].[C-]#[O+].[C-]#[O+].[Cl][Ru][Cl].[Cl][Ru][Cl] [CORM-2, tricarbonyldichlororuthenium (II) dimer]
Rabbit plasma; [2]
  ACL (area under the curve of lysis): 196.3 ± 25*^ −dynes/cm^2
  MRL (maximum rate of lysis): −2.5 ± 0.4 −dynes/cm^2/sec
  MRTG (maximum rate of thrombus generation): 14.2 ± 1.4 dynes/cm^2/sec
  TMRL (time to maximum rate of lysis): 2.6 ± 0.5 min
  TMRTG (time to maximum rate of thrombus generation): 2.8 ± 0.1 min
  TTG (total thrombus generation): 237 ± 8 dynes/cm^2
Rabbit plasma; [3]
  Percent Change of ACL: 94%
  Percent Change of MRL: −63%
  Percent Change of MRTG: 52%
  Percent Change of TMRL: 110%
  Percent Change of TMRTG: 8%
  Percent Change of TTG: 118%
Rabbit plasma; [4]
  MRTG (maximum rate of thrombus generation): 13.9 ± 2.9 dynes/cm^2/sec
  TMRTG (time to maximum rate of thrombus generation): 2.8 ± 0.1 min
  TTG (total thrombus generation): 290 ± 35 dynes/cm^2
Rabbit plasma; no tPA, 100 μM vs 0 μM CORM-2
  Percent Change of MRTG: 46%
  Percent Change of TMRTG: 5%
  Percent Change of TTG: 25%
[1]
  effect on clot lifespan: The clot lifespan was increased in all subjects
  increase in MRL, % of baseline values: 11-181%
